# In patent US10624875B2, “Methods and compositions for treating schizophrenia” (The Johns Hopkins University, priority 2012, dated 2020):
# Several values for one entry are separate records, joined by “and”; a condition that tells them apart may be missing. Identical values can stand only once.
# Columns and labels:
# MAM-treated rats [1] = conditions: administered systemically and directly infused into the ventral HPC; cited from earlier work
# HPC neurons = conditions: saline-treated and MAM-treated animals; cited from earlier work
# MAM-treated rats [2] = conditions: cited from earlier work
# aged-impaired (AI) rats = assay: eight-arm Radial Arm Maze (RAM) task with one-hour delay, spatial memory retention; type: in vivo, rat; conditions: drug on its own (levetiracetam i.p., valproate subcutaneous)
# Experimental: The effects of levetiracetam on the spatial memory retention of aged-impaired (AI) rats were assessed in a Radial Arm Maze (RAM) behavioral task using vehicle control and five different dosage levels of levetiracetam (1.25 mg/kg/day, 2.5 mg/kg/day, 5 mg/kg/day, 10 mg/kg/day and 20 mg/kg/day). RAM behavioral tasks were preformed on ten AI rats. All six treatment conditions were tested on all ten rats, as described above for the MWM test. The RAM apparatus used consisted of eight equidistantly-spaced arms. An elevated maze arm (7 cm width×75 cm length) projected from each facet of an octagonal center platform (30 cm diameter, 51.5 cm height). Clear side walls on the arms were 10 cm high and were angled at 65° to form a trough. A food well (4 cm diameter, 2 cm deep) was located at the distal end of each arm. Froot Loops™ (Kellogg Company) were used as rewards. Blocks constructed of Plexiglas™ (30 cm height×12 cm width) could be positioned to prevent entry to any arm. Numerous extra maze cues surrounding the apparatus were also provided. The AI rats were initially subjected to a pre-training test (Chappell et al. Neuropharmacology 37: 481-487, 1998). The pre-training test consisted of a habituation phase (4 days), a training phase on the standard win-shift task (18 days) and another training phase (14 days) in which a brief delay was imposed between presentation of a subset of arms designated by the experimenter (e.g., 5 arms available and 3 arms blocked) and completion of the eight-arm win-shift task (i.e., with all eight arms available). In the habituation phase, rats were familiarized to the maze for an 8-minute session on four consecutive days. In each of these sessions food rewards were scattered on the RAM, initially on the center platform and arms and then progressively confined to the arms. After this habituation phase, a standard training protocol was used, in which a food pellet was located at the end of each arm. Rats received one trial each day for 18 days. Each daily trial terminated when all eight food pellets had been obtained or when either 16 choices were made or 15 minutes had elapsed. After completion of this training phase, a second training phase was carried out in which the memory demand was increased by imposing a brief delay during the trial. At the beginning of each trial, three arms of the eight-arm maze were blocked. Rats were allowed to obtain food on the five arms to which access was permitted during this initial ‘information phase’ of the trial. Rats were then removed from the maze for 60 seconds, during which time the barriers on the maze were removed, thus allowing access to all eight arms. Rats were then placed back onto the center platform and allowed to obtain the remaining food rewards during this ‘retention test’ phase of the trial. The identity and configuration of the blocked arms varied across trials. The number of “errors” the AI rats made during the retention test phase was tracked. An error occurred in the trial if the rats entered an arm from which food had already been retrieved in the pre-delay component of the trial, or if it re-visited an arm in the post-delay session that had already been visited. After completion of the pre-training test, rats were subjected to trials with more extended delay intervals, i.e., a one-hour delay, between the information phase (presentation with some blocked arms) and the retention test (presentation of all arms). […]
Compound,number of spontaneously active DA neurons in the ventral tegmental area (VTA) (MAM-treated rats [1]),cortical-evoked responses of HPC neurons (HPC neurons),increased locomotor response to amphetamine (MAM-treated rats [2]),dose effective in reducing the number of errors (aged-impaired (AI) rats),dose not effective in reducing the number of errors (aged-impaired (AI) rats)
C#Cc1ccc2c(c1)C(c1ccccc1F)=N[C@H](C)c1c(C(=O)OCC)ncn1-2 [SH-053-2′F—R—CH3],reduces the number of spontaneously active DA neurons,diminished cortical-evoked responses,is reduced,,
CCCC(CCC)C(=O)O [Valproate],,,,100 mg/kg,25 mg/kg and 50 mg/kg
